Experimental data from US20240182470A1, “KRASG12C MUTANT PROTEIN INHIBITOR, PREARATION AND USE THEREOF” (YA THERAPEUTICS INC, priority 2021, published 2024).

System: H358 (KRAS G12C mutant) cells
Assay: Tumor cell proliferation inhibition assay (Cell Titer-Glo, 72 h)
Format: cell-based
Details: inhibition of tumor cell proliferation, 72 hours with compound, 10% fetal bovine serum; read-out: NCI-H538 IC50(nm)
Method: The H358 (KRAS G^12C mutant) cells were digested, centrifuged and resuspended, and the cell density was measured with a Scepter automatic cell counter. The cells were diluted to a solution containing 44,000 cells per milliliter, and the density-adjusted cell solution was 90 microliters per well. into a 96-well culture plate. The 96-well plate was placed in a 37° C., 5% CO2 incubator. After the cells were cultured for 24 hours, different concentrations of the compounds to be tested were added. The cells were incubated with the compounds for 72 hours in the presence of 10% fetal bovine serum. Glo Luminescent Cell Viability Assay Kit (see manufacturer's instructions for details) was used to measure ATP content to assess cell growth inhibition. Briefly, 30 μl of Cell Titer-Glo reagent was added to each well, and the plate was shaken for 10 minutes to induce cell lysis. Fluoroskan
Ascent FL (Thermo) assay was used to record the fluorescent signal, and the maximum signal value was obtained from cells treated with dimethyl sulfoxide for 72 hours. The minimum signal value was obtained from the medium alone (the number of cells was zero), and the % inhibition rate=(the maximum signal value compound signal value)/(the maximum signal value—the minimum signal value×100%, and the data were processed using Graphpadprism 5 software. By sigmoid Dose-response curve fitting to calculate the IC50 value. “A” means IC50≤50 nM; “B” means 50<IC50≤500 nM; “C” means 500<IC50≤2000 nM; “D” means 2000 nM<IC50

| Molecule | IC50 [nM] |
| --- | --- |
| 7-(8-Fluoronaphthyl)-8-fluoro-(((S)-4-(2-fluoroacryloyl)-3-carbonitrileethylpiperazine)-1-yl)-2-((((S)-2,2-difluorotetrahydro-1H-pyrincycline-7a(5H)-yl)methoxy)quinazoline [Compound 66] | ≤ 50 |
| 7-(8-Methylnaphthalene)-4-(((R)-4-Acryloyl-2-methylpiperazine)-1-yl)-2-(((1-(pyrrolidin-1-yl)methylcyclopropan-1-yl)methoxy)pyridine[2,3-d]lopyrimidine [Compound 17] | ≤ 50 |
| 7-(8-Methylnaphthalene)-4-(((R)-4-Acryloyl-2-methylpiperazine)-1-yl)-24(1-(N,N-dimethylamineyl)methylcyclopropan-1-yl)methoxy)pyridine[2,3-d]lopyrimidine [Compound 22] | ≤ 50 |
| 7-(8-Methylnaphthalene)-4-(((R)-4-Acryloyl-3-carbonitrileethylpiperazine)-1-yl)-2-(((1-(pyrrolidin-1-yl))methylcyclopropan-1-yl)methoxy)pyridine[2,3-d]lopyrimidine [Compound 18] | ≤ 50 |
| 7-(8-Methylnaphthalene)-4-(((R)-4-Acryloyl-3-carbonitrileethylpiperazine)-1-yl)-24(1-(N,N-Dimethyl)amino)methylcyclopropan-1-yl)methoxy)pyridine[2,3-d]lopyrimidine [Compound 19] | ≤ 50 |
| 7-(8-Methylnaphthyl)-4-(((R)-4-acryloyl-2-methylpiperazine)-1-yl)-2-(((S)-2,2-difluoro tetrahydro-1H-pyrincycl-7a(5H)-yl)methoxy)pyridine[2,3-d]lopyrimidine [Compound 87] | ≤ 50 |
| 7-(8-Methylnaphthyl)-6-fluoro-4-(((R)-4-acryloyl-2-methylpiperazine)-1-yl)-1-y1)-2-(((S)-2,2-difluorotetrahydro-1H-pyrincyclo-7a(5H)-yl)methoxy)pyridine[2,3-d]lopyrimidine [Compound 80] | ≤ 50 |
| 7-(8-Methylnaphthyl)-6-fluoro-4-(((R)-4-acryloyl-2-methylpiperazine)-1-yl)-2-(((2R,7aS)-2-fluorotetrahydro-1H-pyrincyclo-7a(5H)-yl)methoxy)pyridine[2,3-d]lopyrimidine [Compound 81] | ≤ 50 |
| 7-(8-Methylnaphthyl)-6-fluoro-4-(((S)-4-(2-fluoro acryloyl)-3-carbonitrileethylpiperazine)-1-yl)-2-(((S)-2,2-difluorotetrahydro-1H-pyrincycl-7a(5H)-yl)methoxy)pyridine[2,3-d]lopyrimidine [Compound 85] | ≤ 50 |
| 7-(8-Methylnaphthyl)-6-fluoro-4-(((S)-4-(2-fluoroacryloyl)-3-carbonitrileethylpiperazine)-1-yl)-2-(((2R,7aS)-2-fluorotetrahydro-1H-pyrinyl-7a(5H)-yl)methoxy)pyridine[2,3-d]lopyrimidine [Compound 82] | ≤ 50 |
| 7-(8-Methylnaphthyl)-8-fluoro-4-(((R)-4-acryloyl-2-methylpiperazine)-1-yl)-2-(((2R,7aS)tetrakishydrogen-1H-pyrinyl-7a(5H)-yl)methoxy)quinazoline [Compound 61] | ≤ 50 |
| 7-(8-Methylnaphthyl)-8-fluoro-4-(((R)-4-acryloyl-2-methylpiperazine)-1-yl)-2-(((S)-2,2-difluorotetrahydro-1H-pyrinyl-7a(5H)-yl)methoxy)quinazoline [Compound 62] | ≤ 50 |
| 7-(8-Methylnaphthyl)-8-fluoro-4-(((S)-4-(2-fluoroacryloyl)-3-carbonitrileethylpiperazine)-1-yl)-2-(((S)-2,2-difluorotetrahydro-1H-pyrincyclo-7a(5H)-yl)methoxy)quinazoline [Compound 72] | ≤ 50 |
| 7-(8-fluoronaphthyl)-8-fluoro-4-(((R)-4-acryloyl-2-methylpiperazine)-1-yl)-2-(((S)-2,2-difluorotetrahydro-1H-pyrincyclo-7a(5H)-yl)methoxy)quinazoline [Compound 59] | ≤ 50 |
| 7-(8-fluoronaphthyl)-8-fluoro-4-(((S)-4-(2-fluoroacryloyl)-3-carbonitrileethylpiperazine)-1-yl)-2-(((2R,7aS)-2-fluorotetrahydro-1H-pyrinyl-7a(5H)-yl)methoxy)quinazoline [Compound 51] | ≤ 50 |
| C=C(F)C(=O)N1CCN(c2cc(OC[C@@H]3CCCN3C)nc3nc(-c4cccc5cccc(F)c45)c(F)cc23)C[C@@H]1CC#N [Compound 6] | ≤ 50 |
| C=C(F)C(=O)N1CCN(c2cc(OC[C@@H]3CCCN3C)nc3nc(-c4cccc5cccc(F)c45)c(F)cc23)[C@H](C)C1 [Compound 8] | ≤ 50 |
| C=CC(=O)N1CCN(c2nc(OC[C@@H]3CCCN3C)nc3nc(-c4cccc5cccc(F)c45)c(F)cc23)[C@@H](C)C1 [Compound 10] | ≤ 50 |
| C=CC(=O)N1CCN(c2nc(OC[C@@H]3CCCN3C)nc3nc(-c4c(O)cccc4F)c(F)cc23)[C@@H](C)C1 [Compound 12, 7-(2-Fluoro-6-hydroxyphenyl)-6-fluoro-4-(((S)-4-(2-acryloyl)-2-methylpiperazine)-1-yl)-2-(((S)-1-(methyl-d3)pyrrolidin-2-yl)methoxy)pyridine[2,3-d]lopyrimidine] | 500 to 2000 |
| C=CC(=O)N1CCN(c2nc(OC[C@@]34CCCN3C[C@H](F)C4)nc3nc(-c4cccc5cccc(F)c45)c(F)cc23)C[C@H]1CC#N [Compound 25, 7-(8-Fluoronaphthyl)-6-fluoro-4-(((R)-4-acryloyl-3-carbonitrileethylpiperazine)-1-yl)-2-(((2R,7aS)-2-fluorotetrahydro-1H-pyrincycl-7a(5H)-yl)methoxy)pyridine[2,3-d]lopyrimidine] | ≤ 50 |
| C=CC(=O)N1CCN(c2nc(OC[C@@]34CCCN3C[C@H](F)C4)nc3nc(-c4cccc5cccc(F)c45)c(F)cc23)[C@H](C)C1 [Compound 26, 7-(8-Fluoronaphthyl)-6-fluoro-4-(((R)-4-acryloyl-2-methylpiperazine)-1-yl)-2-(((2R,7aS)-2-Fluorotetrahydro-1H-pyrincycl-7a(5H)-yl)methoxy)pyridine[2,3-d]lopyrimidine] | ≤ 50 |
| C=CC(=O)N1C2CCC1CN(c1nc(OC[C@@]34CCCN3C[C@H](F)C4)nc3nc(-c4cccc5cccc(F)c45)c(F)cc13)C2 [Compound 27] | ≤ 50 |
| C=C(F)C(=O)N1CCN(c2nc(OC[C@@]34CCCN3C[C@H](F)C4)nc3nc(-c4cccc5cccc(F)c45)c(F)cc23)C[C@@H]1CC#N [Compound 29] | ≤ 50 |
| C=C(F)C(=O)N1CCN(c2nc(OC[C@@]34CCCN3C[C@H](F)C4)nc3nc(-c4cccc5cccc(F)c45)c(F)cc23)[C@H](C)C1 [Compound 30] | ≤ 50 |
| C=C(F)C(=O)N1C2CCC1CN(c1nc(OC[C@@]34CCCN3C[C@H](F)C4)nc3nc(-c4cc(O)cc5cccc(F)c45)c(F)cc13)C2 [Compound 32, 7-(3-Hydroxy-8-fluoronaphthyl)-6-fluoro-4-(8-(2-fluoroacryloyl)-3,8-diazabicyclo[3.2.1]octan-3-yl)-2-(((2R,7aS)-2-fluorotetrahydro-1H-pyrincycl-7a(5H)-yl)methoxy)pyridine[2,3-d]lopyrimidine] | ≤ 50 |
| C=C(F)C(=O)N1CCN(c2nc(OC[C@@]34CCCN3C[C@H](F)C4)nc3nc(-c4cc(O)cc5cccc(F)c45)c(F)cc23)C[C@@H]1CC#N [Compound 33, 7-(3-Hydroxy-8-fluoronaphthyl)-6-fluoro-4-(((S)-4-(2-fluoroacryloyl)-3-carbonitrileethylpiperazine)-1-yl)-2-(((2R,7aS)-2-fluorotetrahydro-1H-pyrincycl-7a(5H)-yl)methoxy)pyridine[2,3-d]lopyrimidine] | ≤ 50 |
| C=C(F)C(=O)N1CCN(c2nc(OC[C@@]34CCCN3C[C@H](F)C4)nc3nc(-c4cc(O)cc5cccc(F)c45)c(F)cc23)[C@H](C)C1 [Compound 34, 7-(3-Hydroxy-8-fluoronaphthyl)-6-fluoro-4-(((R)-4-(2-fluoroacryloyl)-2-methylpiperazine)-1-yl)-2-(((2R,7aS)-2-fluorotetrahydro-1H-pyrincyclin-7a(5H)-yl)methoxy)pyridine[2,3-d]lopyrimidine] | ≤ 50 |
| C=CC(=O)N1CCN(c2nc(OC[C@@]34CCCN3C[C@H](F)C4)nc3nc(-c4cc(O)cc5cccc(F)c45)c(F)cc23)C[C@@H]1CC#N [Compound 35, 7-(3-Hydroxy-8-fluoronaphthyl)-6-fluoro-4-(((S)-4-acryloyl-3-carbonitrileethylpiperazine)-1-yl)-2-(((2R,7aS)-2-fluorotetrahydro-1H-pyrinyl-7a(5H)-yl)methoxy)pyridine[2,3-d]lopyrimidine] | ≤ 50 |
| C=CC(=O)N1CCN(c2nc(OC[C@@]34CCCN3C[C@H](F)C4)nc3nc(-c4cc(O)cc5cccc(F)c45)c(F)cc23)[C@H](C)C1 [Compound 36, 7-(3-Hydroxy-8-fluoronaphthyl)-6-fluoro-4-(((R)-4-acryloyl-2-methylpiperazine)-1-yl)-2-(((2R,7aS)-2-fluorotetrahydro-1H-pyrincyclo-7a(5H)-yl)methoxy)pyridine[2,3-d]lopyrimidine] | ≤ 50 |
